By EC50 is commonly meant the concentration at which the effect is half-maximal. A lower EC50 goes with an effect from little substance.

For data set [1], the system named is HIV-1. As to the kind of experiment: Anti-HIV-1 activity in TZM-GFP cells (viral LTR-activated GFP expression). The class given is cell-based. To be noted: Human immunodeficiency virus 1, HIV-1 strain MOI=1, GFP positive cells counted after 48 hours. The method in brief: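 TZM-GFP cells treated with increasing compound for 24 h, then infected with HIV-1 (MOI=1); EC50 based on inhibition of LTR-driven GFP expression versus DMSO controls. CC50 determined by XTT after 72 h continuous exposure in the same cells; duplicate, ≥2 independent experiments, variable-slope curve fit.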

Data set [2] concerns TZM-GFP cells. As to the kind of experiment: Cytotoxicity in TZM-GFP cells (XTT). It is filed as cell-based. To be noted: 50 μM compound. The method in brief: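 TZM-GFP cells (1×10^4 per well) exposed continuously to increasing compound concentrations for 72 hours. Viable cells measured by XTT; CC50 from log(inhibitor) vs. normalized response-variable slope fit, averaged over at least two independent duplicate experiments.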
For orientation: Tetrazolium assays rely on reduction of a dye to a coloured formazan, in cell work by metabolically active cells.

For data set [3], the target named is covalently-crosslinked hexameric CA A14C/E45C/W184A/M185A (CA121) (Human immunodeficiency virus type 1 group M subtype B, UniProt P12493, A146C/E177C/M317A/W316A). The data set is described as follows: Thermal shift assay (TSA), CA hexamer stability. It is filed as binding, HIV-1. To be noted: compound 20 μM, ΔTm=Tm−T0 vs DMSO.
Data set [4] can be described thus: Microsomal stability assay, human liver microsomes. The conditions noted are these: human liver microsomes, 1 μM compound, NADPH. It is filed as in vitro ADME. As for the experimental part: (§1) The in vitro microsomal stability assay was conducted in duplicate in mouse and human liver microsomal systems, which were supplemented with nicotinamide adenine dinucleotide phosphate (NADPH) as a cofactor. […] The reaction was initiated by addition of 1 mM NADPH, followed by incubation at 37° C. A negative control was performed in parallel in the absence of NADPH to measure any chemical instability or non-NADPH dependent enzymatic degradation for each compound. At various time points (0, 5, 15, 30, and 60 minutes), 1 volume of reaction aliquot was taken and quenched with 3 volumes of acetonitrile containing an appropriate internal standard and 0.1% formic acid. The samples were then vortexed and centrifuged at 15,000 rpm for 5 minutes at 4° C. The supernatants were collected and analyzed by LC-MS/MS to determine the in vitro metabolic half-life (t1/2).
In general terms: Liver microsomes are vesicles of endoplasmic reticulum, rich in cytochrome P450 enzymes.

Data set [5] in a line: Microsomal stability assay, mouse liver microsomes. It is filed as in vitro ADME. To be noted: NADPH. As to the method: as §1
The mark [6] stands for this setting: pH 7.4, without Cobicistat, read-out: HLM half-life (t1/2).
The mark [7] stands for this setting: pH 7.4, 1 μM compound, without Cobicistat, read-out: MLM half-life (t1/2).
The mark [8] stands for this setting: pH 7.4, with Cobicistat 0.5 μM (CYP3A inhibitor), with 0.5 μM Cobicistat (CYP3A inhibitor), read-out: HLM (+Cobi) half-life (t1/2).
Setting [9] is: pH 7.4, with Cobicistat 0.5 μM (CYP3A inhibitor), 1 μM compound, with 0.5 μM Cobicistat (CYP3A inhibitor), read-out: MLM (+Cobi) half-life (t1/2).
Where [10] appears, read: 1 μM compound, without Cobicistat.
The mark [11] stands for this setting: 1 μM compound, with 0.5 μM Cobicistat (CYP3A inhibitor).

The compound `Cc1[nH]c2ccccc2c1CC(=O)N[C@@H](Cc1ccccc1)c1ncccc1-c1ccccc1` [Example 49, (S)-2-(2-methyl-1H-indol-3-yl)-N-(2-phenyl-1-(3-phenylpyridin-2-yl)ethyl)acetamide] registered an EC50 in data set [1] of 2.6 ± 0.4 µM. In data set [2], the “% viability at 50 μM” value came out at 29 ± 12%. In addition, the “TSA ΔTm (° C.)” value in data set [3] turned out to be 4.5 °C.
The compound `O=C(Cn1ncc2ccccc21)N[C@@H](Cc1ccccc1)c1ncccc1-c1ccccc1` [Example 50, (S)-2-(1H-indazol-1-yl)-N-(2-phenyl-1-(3-phenylpyridin-2-yl)ethyl)acetamide] returned a half-maximal effective concentration (EC50) in data set [1] of 8.8 ± 0.4 µM. For the same compound, the “% viability at 50 μM” value in data set [2] came to 46 ± 13%. Also, the “TSA ΔTm (° C.)” value in data set [3] was determined as 1.0 °C.
On the same counts, the results for `O=C(Cn1cccn1)N[C@@H](Cc1ccccc1)c1ncccc1-c1ccccc1` [Example 51, (S)—N-(2-phenyl-1-(3-phenylpyridin-2-yl)ethyl)-2-(1H-pyrazol-1-yl)acetamide] are 5.1 ± 0.7 µM, 102 ± 6% and 1.1 °C.
On the same counts, the results for `Cc1[nH]c2ccccc2c1CC(=O)N[C@@H](Cc1ccccc1)c1nccn1-c1ccccc1` [Example 52, (S)-2-(2-methyl-1H-indol-3-yl)-N-(2-phenyl-1-(1-phenyl-1H-imidazol-2-yl)ethyl)acetamide] are 3.7 ± 0.8 µM, 78 ± 6% and 3.9 °C.
On the same counts, the results for `Cc1[nH]c2ccccc2c1CC(=O)N[C@@H](Cc1ccccc1)c1nccn1-c1ccc(C#N)cc1` [Example 53, (S)—N-(1-(1-(4-cyanophenyl)-1H-imidazol-2-yl)-2-phenylethyl)-2-(2-methyl-1H-indol-3-yl)acetamide] are 6.6 ± 0.4 µM, 87 ± 8% and 2.2 °C.
As for `CN(C(=O)[C@H](Cc1ccccc1)NC(=O)Cc1cccc2ccccc12)c1ccccc1` [drawing 183], the results for the half-life at 1 μM in data set [4] (setting [6]) and in data set [5] (setting [7]) were 0.6 min and 0.5 min, respectively.
`CN(C(=O)[C@H](Cc1ccccc1)NC(=O)Cc1cccc2ccccc12)c1ccc(Cl)cc1` [drawing 184]: the half-life at 1 μM worked out at 102 min in data set [4] (setting [8]), 1.1 min in data set [4] (setting [6]), 0.6 min in data set [5] (setting [7]) and 7.4 min in data set [5] (setting [9]).
Regarding `COc1ccc(N(C)C(=O)[C@H](Cc2ccccc2)NC(=O)CN2C(=O)NC3(CCCCC3)C2=O)cc1` [drawing 186], the half-life at 1 μM stood at 5.2 min in data set [4] (setting [6]) and 0.7 min in data set [5] (setting [7]).
Taken in the same sequence, the figures for `Cc1ccc(N(C)C(=O)[C@H](Cc2ccccc2)NC(=O)CN2C(=O)NC3(CCCCC3)C2=O)cc1` [drawing 187] were 3.3 min and 1.2 min.
Regarding `CN(C(=O)[C@H](Cc1ccccc1)NC(=O)CN1C(=O)NC2(CCCCC2)C1=O)c1ccc(F)cc1` [drawing 188], the figures for the half-life at 1 μM in data set [4] (setting [6]) and in data set [5] (setting [7]) were 1.1 min and 0.5 min, respectively.
Taken in the same sequence, the figures for `CN(C(=O)[C@H](Cc1ccccc1)NC(=O)CN1C(=O)NC2(CCCCC2)C1=O)c1ccc(Cl)cc1` [drawing 189] were 3.1 min and 0.9 min.
Regarding `CN(C(=O)[C@H](Cc1ccccc1)NC(=O)CNC(=O)c1ccccc1)c1ccccc1` [drawing 190], the “HLM half-life (t1/2)” value in data set [4] (without Cobicistat) came out at 15 min. The “MLM half-life (t1/2)” value in data set [5] (setting [10]) came out at 3.6 min.
Take `Cc1ccc(N(C)C(=O)[C@H](Cc2ccccc2)NC(=O)CNC(=O)c2ccccc2)cc1` [drawing 191]: the “HLM (+Cobi) half-life (t1/2)” value in data set [4] (with 0.5 μM Cobicistat (CYP3A inhibitor)) is on record as 42 min. Moreover, in data set [4] (without Cobicistat), the “HLM half-life (t1/2)” value is reported as 22 min. Further, in data set [5] (setting [11]), the “MLM (+Cobi) half-life (t1/2)” value worked out at 34 min. The “MLM half-life (t1/2)” value in data set [5] (setting [10]) is recorded as 5.0 min.
Turning to `CN(C(=O)[C@H](Cc1ccccc1)NC(=O)CNC(=O)c1ccccc1)c1ccc(Cl)cc1` [drawing 192], in data set [4] (without Cobicistat), the “HLM half-life (t1/2)” value was 36 min. In data set [4] (setting [8]), the half-life at 1 μM was found to be 141 min. Further, the “MLM (+Cobi) half-life (t1/2)” value in data set [5] (setting [11]) came out at 52 min. The “MLM half-life (t1/2)” value in data set [5] (setting [10]) was determined as 13 min.
In the case of `CN(C(=O)[C@H](Cc1ccccc1)NC(=O)CNC(=O)c1ccccc1)c1cccc(F)c1` [drawing 193], in data set [4] (without Cobicistat), the “HLM half-life (t1/2)” value is given as 12 min. In addition, in data set [5] (setting [10]), the “MLM half-life (t1/2)” value was 3.6 min.
With `CCN(C(=O)[C@H](Cc1ccccc1)NC(=O)CNC(=O)c1ccccc1)c1ccccc1` [drawing 194], the “HLM half-life (t1/2)” value in data set [4] (without Cobicistat) stood at 14 min. For the same compound, the half-life at 1 μM in data set [4] (setting [8]) amounted to 231 min. Also, the “MLM (+Cobi) half-life (t1/2)” value in data set [5] (setting [11]) came to 28 min. Moreover, the “MLM half-life (t1/2)” value in data set [5] (setting [10]) is 2.4 min.
For the compound `Cc1cn(CC(=O)N[C@@H](Cc2ccccc2)C(=O)N(C)c2ccc(Cl)cc2)c(=O)[nH]c1=O` [drawing 195], the “HLM half-life (t1/2)” value in data set [4] (without Cobicistat) is 12 min. Further, the values for the half-life at 1 μM in data set [4] (setting [8]) and in data set [5] (setting [9]) were 1390 min and 385 min, respectively. Further, the “MLM half-life (t1/2)” value in data set [5] (setting [10]) stood at 4.6 min.

(Values after patent publication US11850247B2, “Antiviral compounds” (REGENTS OF THE UNIVERSITY OF MINNESOTA, priority 2020, dated 2023).)
